According to PMC11672637, “7-O-Carboxylic Acid-Substituted 3-O-Alkyl Difluoroquercetin; An Aztreonam-Potentiating Agent Against Carbapenemase-Producing Pseudomonas aeruginosa Through Simultaneous Inhibition of Metallo-β-Lactamase and Efflux Pump” (Antibiotics, 2024):
Read-outs that look alike come from different tables or passages of the source.

Assays:
Assay type in all cases: cell-based, P. aeruginosa
PA-014, blaGES = assay: MIC / checkerboard with ATM; conditions: for MIC: Pseudomonas aeruginosa, read-out: MIC of ATM with 5, PA-014
PA-016, blaIMP = assay: MIC / checkerboard with ATM; conditions: for MIC: Pseudomonas aeruginosa, read-out: MIC of ATM with 5, PA-016
PA-027, blaIMP = assay: MIC / checkerboard with ATM; conditions: for MIC: Pseudomonas aeruginosa, read-out: MIC of ATM with 5, PA-027
PA-040, blaNDM = assay: MIC / checkerboard with ATM; conditions: for MIC: Pseudomonas aeruginosa, read-out: MIC of ATM with 5, PA-040
PA-041, blaNDM = assay: MIC / checkerboard with ATM; conditions: for MIC: Pseudomonas aeruginosa, read-out: MIC of ATM with 5, PA-041
PA-042, blaIMP/NDM = assay: MIC / checkerboard with ATM; conditions: for MIC: Pseudomonas aeruginosa, read-out: MIC of ATM with 5, PA-042
[1] = system: ATM-Resistant CPPA (n = 15); assay: MIC distribution over clinical isolates; conditions: for inhibition at 1 µg/mL: read-out: Cumulative % inhibition by ATM, 5 at 1 mg/L; for inhibition at 2 µg/mL: read-out: Cumulative % inhibition by ATM, 5 at 2 mg/L; for inhibition at 4 µg/mL: read-out: Cumulative % inhibition by ATM, 5 at 4 mg/L; for inhibition at 8 µg/mL: read-out: Cumulative % inhibition by ATM, 5 at 8 mg/L
[2] = Pseudomonas aeruginosa, ATM 0.5 mg/L
[3] = Pseudomonas aeruginosa, ATM 1 mg/L
[4] = Pseudomonas aeruginosa, ATM 2 mg/L
[5] = Pseudomonas aeruginosa, ATM 4 mg/L
[6] = Pseudomonas aeruginosa, ATM 8 mg/L
[7] = Pseudomonas aeruginosa, ATM 16 mg/L
[8] = Pseudomonas aeruginosa, ATM 32 mg/L
[9] = Pseudomonas aeruginosa, ATM 64 mg/L

CC(C)(C)CCOc1c(-c2ccc(F)c(F)c2)oc2cc(OCC(=O)O)cc(O)c2c1=O [Compound 5, 2-((2-(3,4-Difluorophenyl)-3-(3,3-dimethylbutoxy)-5-hydroxy-4-oxo-4H-chromen-7-yl)oxy)acetic Acid]
Activity (FICI class) (PA-014, blaGES; PA-014): S (S (Synergy, FICI ≤ 0.5)) | Concentrations of ATM and 5 at lowest FICI (ATM/5) (PA-014, blaGES; PA-014): 4/16 | Lowest FICI (ATM/5) (PA-014, blaGES; PA-014): 0.28 | Minimum concentration of 5 to make sensitive to ATM (PA-014, blaGES; PA-014): 4 mg/L | Susceptibility to ATM (PA-014, blaGES; PA-014, ATM/5): S (S (sensitive, MIC ≤ 8 mg/L)) | FD (fold decrease in MIC of ATM with 5) (PA-014, blaGES; PA-014, lowest-FICI combination): 4 | MIC (PA-014, blaGES; 5 at 1 mg/L): 16 µg/mL | MIC (PA-014, blaGES; 5 at 2 mg/L): 16 µg/mL | MIC (PA-014, blaGES; 5 at 4 mg/L): 8 µg/mL | MIC (PA-014, blaGES; 5 at 8 mg/L): 8 µg/mL | MIC (PA-014, blaGES; 5 at 16 mg/L): 4 µg/mL | MIC (PA-014, blaGES; 5 at 32 mg/L): 4 µg/mL | MIC (PA-014, blaGES; 5 at 64 mg/L): 4 µg/mL | Activity (FICI class) (PA-016, blaIMP; PA-016): S (S (Synergy, FICI ≤ 0.5)) | Concentrations of ATM and 5 at lowest FICI (ATM/5) (PA-016, blaIMP; PA-016): 8/8 | Lowest FICI (ATM/5) (PA-016, blaIMP; PA-016): 0.27 | Minimum concentration of 5 to make sensitive to ATM (PA-016, blaIMP; PA-016): 8 mg/L | Susceptibility to ATM (PA-016, blaIMP; PA-016, ATM/5): S (S (sensitive, MIC ≤ 8 mg/L)) | FD (fold decrease in MIC of ATM with 5) (PA-016, blaIMP; PA-016, lowest-FICI combination): 4 | MIC (PA-016, blaIMP; 5 at 1 mg/L): 32 µg/mL | MIC (PA-016, blaIMP; 5 at 2 mg/L): 16 µg/mL | MIC (PA-016, blaIMP; 5 at 4 mg/L): 16 µg/mL | MIC (PA-016, blaIMP; 5 at 8 mg/L): 8 µg/mL | MIC (PA-016, blaIMP; 5 at 16 mg/L): 8 µg/mL | MIC (PA-016, blaIMP; 5 at 32 mg/L): 4 µg/mL | MIC (PA-016, blaIMP; 5 at 64 mg/L): 4 µg/mL | Activity (FICI class) (PA-027, blaIMP; PA-027): S (S (Synergy, FICI ≤ 0.5)) | Concentrations of ATM and 5 at lowest FICI (ATM/5) (PA-027, blaIMP; PA-027): 8/4 | Lowest FICI (ATM/5) (PA-027, blaIMP; PA-027): 0.26 | Minimum concentration of 5 to make sensitive to ATM (PA-027, blaIMP; PA-027): 4 mg/L | Susceptibility to ATM (PA-027, blaIMP; PA-027, ATM/5): S (S (sensitive, MIC ≤ 8 mg/L)) | FD (fold decrease in MIC of ATM with 5) (PA-027, blaIMP; PA-027, lowest-FICI combination): 4 | MIC (PA-027, blaIMP; 5 at 1 mg/L): 32 µg/mL | MIC (PA-027, blaIMP; 5 at 2 mg/L): 16 µg/mL | MIC (PA-027, blaIMP; 5 at 4 mg/L): 8 µg/mL | MIC (PA-027, blaIMP; 5 at 8 mg/L): 4 µg/mL | MIC (PA-027, blaIMP; 5 at 16 mg/L): 2 µg/mL | MIC (PA-027, blaIMP; 5 at 32 mg/L): 2 µg/mL | MIC (PA-027, blaIMP; 5 at 64 mg/L): 2 µg/mL | Activity (FICI class) (PA-040, blaNDM; PA-040): S (S (Synergy, FICI ≤ 0.5)) | Concentrations of ATM and 5 at lowest FICI (ATM/5) (PA-040, blaNDM; PA-040): 1/32 | Lowest FICI (ATM/5) (PA-040, blaNDM; PA-040): 0.31 | Susceptibility to ATM (PA-040, blaNDM; PA-040, ATM/5): S (S (sensitive, MIC ≤ 8 mg/L)) | FD (fold decrease in MIC of ATM with 5) (PA-040, blaNDM; PA-040, lowest-FICI combination): 4 | MIC (PA-040, blaNDM; 5 at 1 mg/L): 4 µg/mL | MIC (PA-040, blaNDM; 5 at 2 mg/L): 4 µg/mL | MIC (PA-040, blaNDM; 5 at 4 mg/L): 2 µg/mL | MIC (PA-040, blaNDM; 5 at 8 mg/L): 2 µg/mL | MIC (PA-040, blaNDM; 5 at 16 mg/L): 2 µg/mL | MIC (PA-040, blaNDM; 5 at 32 mg/L): 1 µg/mL | MIC (PA-040, blaNDM; 5 at 64 mg/L): 1 µg/mL | Activity (FICI class) (PA-041, blaNDM; PA-041): S (S (Synergy, FICI ≤ 0.5)) | Concentrations of ATM and 5 at lowest FICI (ATM/5) (PA-041, blaNDM; PA-041): 1/32 | Lowest FICI (ATM/5) (PA-041, blaNDM; PA-041): 0.31 | Susceptibility to ATM (PA-041, blaNDM; PA-041, ATM/5): S (S (sensitive, MIC ≤ 8 mg/L)) | FD (fold decrease in MIC of ATM with 5) (PA-041, blaNDM; PA-041, lowest-FICI combination): 4 | MIC (PA-041, blaNDM; 5 at 1 mg/L): 4 µg/mL | MIC (PA-041, blaNDM; 5 at 2 mg/L): 4 µg/mL | MIC (PA-041, blaNDM; 5 at 4 mg/L): 2 µg/mL | MIC (PA-041, blaNDM; 5 at 8 mg/L): 2 µg/mL | MIC (PA-041, blaNDM; 5 at 16 mg/L): 2 µg/mL | MIC (PA-041, blaNDM; 5 at 32 mg/L): 1 µg/mL | MIC (PA-041, blaNDM; 5 at 64 mg/L): 1 µg/mL | Activity (FICI class) (PA-042, blaIMP/NDM; PA-042): I (I (indifference, 0.5 < FICI ≤ 4)) | Concentrations of ATM and 5 at lowest FICI (ATM/5) (PA-042, blaIMP/NDM; PA-042): 1/4 | Lowest FICI (ATM/5) (PA-042, blaIMP/NDM; PA-042): 0.51 | Susceptibility to ATM (PA-042, blaIMP/NDM; PA-042, ATM/5): S (S (sensitive, MIC ≤ 8 mg/L)) | FD (fold decrease in MIC of ATM with 5) (PA-042, blaIMP/NDM; PA-042, lowest-FICI combination): 2 | MIC (PA-042, blaIMP/NDM; 5 at 1 mg/L): 2 µg/mL | MIC (PA-042, blaIMP/NDM; 5 at 2 mg/L): 2 µg/mL | MIC (PA-042, blaIMP/NDM; 5 at 4 mg/L): 1 µg/mL | MIC (PA-042, blaIMP/NDM; 5 at 8 mg/L): 1 µg/mL | MIC (PA-042, blaIMP/NDM; 5 at 16 mg/L): 1 µg/mL | MIC (PA-042, blaIMP/NDM; 5 at 32 mg/L): 1 µg/mL | MIC (PA-042, blaIMP/NDM; 5 at 64 mg/L): 1 µg/mL | ATM-non-susceptible pathogens (MIC ≥ 16 mg/L) converted into sensitive ones by combination with 5 [1]: 14 out of 15 | inhibition at 1 µg/mL [1, 2]: 0% | inhibition at 1 µg/mL [1, 3]: 0% | inhibition at 1 µg/mL [1, 4]: 0% | inhibition at 1 µg/mL [1, 5]: 0% | inhibition at 1 µg/mL [1, 6]: 7% | inhibition at 1 µg/mL [1, 7]: 67% | inhibition at 1 µg/mL [1, 8]: 100% | inhibition at 1 µg/mL [1, 9]: 100% | inhibition at 2 µg/mL [1, 2]: 0% | inhibition at 2 µg/mL [1, 3]: 0% | inhibition at 2 µg/mL [1, 4]: 0% | inhibition at 2 µg/mL [1, 5]: 0% | inhibition at 2 µg/mL [1, 6]: 7% | inhibition at 2 µg/mL [1, 7]: 87% | inhibition at 2 µg/mL [1, 8]: 100% | inhibition at 2 µg/mL [1, 9]: 100% | inhibition at 4 µg/mL [1, 2]: 0% | inhibition at 4 µg/mL [1, 3]: 0% | inhibition at 4 µg/mL [1, 4]: 0% | inhibition at 4 µg/mL [1, 5]: 7% | inhibition at 4 µg/mL [1, 6]: 67% | inhibition at 4 µg/mL [1, 7]: 100% | inhibition at 4 µg/mL [1, 8]: 100% | inhibition at 4 µg/mL [1, 9]: 100% | inhibition at 8 µg/mL [1, 2]: 0% | inhibition at 8 µg/mL [1, 3]: 0% | inhibition at 8 µg/mL [1, 4]: 0% | inhibition at 8 µg/mL [1, 5]: 47% | inhibition at 8 µg/mL [1, 6]: 80% | inhibition at 8 µg/mL [1, 7]: 100% | inhibition at 8 µg/mL [1, 8]: 100% | inhibition at 8 µg/mL [1, 9]: 100% | inhibition at 16 µg/mL ([1]; Pseudomonas aeruginosa, read-out: Cumulative % inhibition by ATM, 5 at 16 mg/L, ATM 0.5 mg/L): 0%
